{"source": "patent US20250129045A1", "about": "“SMALL MOLECULE PIM AND MTOR KINASE INHIBITOR AND METHODS OF USE THEREOF” (Arizona Board of Regents on Behalf of the University of …, priority 2022, published 2025)", "key": {"[1]": {"tested_on": "PC3-LN4 cells", "experiment": "P-body (PB) number in PC3-LN4 GFP-EDC3 cells", "type": "cell-based, human", "details": "6 h", "method": "(§1) FIGS. 7A-7I show inhibition of VBT5445 (VBT) on Pim1 and EDC3 binding and phosphorylation. FIG. 7A: In vitro co-precipitation (Co-PPT) assay was performed with recombinant EDC3 and biotinylated Pim1 using Streptavidin beads with increasing concentrations of the Pim inhibitor VBT5445 (VBT). FIG. 7B: Kinase assays were performed with recombinant EDC3 and Pim1 with increasing concentrations of VBT. FIG. 7C: Cell lysates from PC3-LN4 cells cultured with DMSO, 10 μM VBT, 3 μM AZD5363 (AKTi) and the combination for 6 hrs were subjected to western blotting (WB). […] WBs were performed using the indicated antibodies. FIG. 7E: PC3-LN4 cells were seeded into 48 well plate and incubated with either DMSO, VBT, AZD5363 or the combination, for 4.5 days. A real-time imaging system (IncuCyte™) was used to measure cell proliferation using a non-label cell monolayer confluence approach. FIG. 7F-7H: GFP image in PC3 LN4 GFP EDC3 expressing cells treated with PIMi: VBT (5 μM) and VBT (5 μM)+AZD5363 (3 μM) for 6 hrs.\nTo measure PB numbers, PC3-LN4 PCa cells containing a CRISPR/Cas total knock-out of EDC3 were stably transduced with GFP-EDC3. When localized in PBs, GFP spots could be quantified. PBs were quantified at the University of Colorado Center for Drug Discovery using an Opera Phenix Plus high content screening system (PerkinElmer) Perkin Elmer G3 robotic system after drug treatment. Assays were carried out in quadruplicate and the mean number of PBs per cell and cell area calculated. An example of this assay is shown using […] buffered saline (HBSS) to induce PB formation.\nImmunofluorescence: Immunofluorescence (IF) staining was performed on PC3-LN4 cells stably expressing EDC3-GFP. 1×10^4 cells were seeded in each chamber of an 8 well chamber slide (Nunc Lab-Tek II Chamber Slide System, Life Technologies) and cultured for 48 h. After attaching to the chamber slides cells were treated with DMSO, VB-5445 ([…]), AZD5363 (3 μM), or the combination for 6 h. Cells were then fixed with 4% paraformaldehyde in PBS for 15 min and subsequently permeabilized with 0.2% Triton X-100 in PBS. Cells were stained with diluted DAPI (1:4000) in 1% nor-mal goat serum in PBS. Cells were mounted with Prolong Gold Antifade mounting medium (Molecular Probes)."}, "[2]": {"tested_on": "PC3-LN4 cells", "experiment": "Western blotting of PC3-LN4 cell lysates", "type": "cell-based, human", "method": "as §1, with “FIG.” for “FIGS. 7A-7I show inhibition of VBT5445 (VBT) on Pim1 and EDC3 binding and phosphorylation. FIG.”\nExtracts were subjected to Western blotting with the indicated antibodies.\n(§2) Immunoblotting: Western blots were performed as described previously. Briefly, protein lysates (30 μg) were subjected to SDS-PAGE and transferred to nitrocellulose membranes. After blocking with 5% milk in TBST buffer for 30 min at room temperature, the membranes were incubated overnight at 4° C. with the Indicated primary antibody in 3% BSA in TBST. Specific proteins were detected with the corresponding HRP conjugated secondary antibody using enhanced chemiluminescence (GE Lifesciences, Piscataway, NJ)."}, "[3]": {"tested_on": "mTORC", "experiment": "Phosphorylation of mTORC substrates in PANC1 cells (Western blot)", "type": "cell-based", "details": "overnight incubation", "method": "as §2\nBecause of ease of growth, PANC1 pancreatic cancer cells were used to test the activity of derivatives of VBT-5445 (FIG. 14). […] Using a doxycycline inducible Pim kinase vector in these tumor cells, this inhibition of phosphorylation was proportional to the level of Pim in these cells (FIG. 9). […] Inhibition of mTORC1 is known to stimulate the feedback activation of mTORC2 leading to AKT phosphorylation. […] The effect of these compounds on mTORC1 and 2 was still evident in PC3-LN4 cells that contained a knockout (KO) using CRISPR/CAS9 of either TSC2 or DEPDC5 (FIG. 12, lanes 4-9). TSC2 KO activated the Rheb GTPase while DEPDC5 KO activated the RAG GTPase both of which stimulate mTORC1 activity. Thus, GRG compounds were capable of inhibiting mTORC1 activity even when this kinase was highly activated."}, "[4]": {"tested_on": "PC3-LN4 and PANC1 cells", "experiment": "RPPA of PC3-LN4 and PANC1 cells (FIG. 24)", "type": "cell-based", "details": "5 μM, 24 h", "method": "Tumor cells were treated with or without GRG-1-34 (5 μM) for 24 h and lysates were subjected to RPPA. The results were clustered in the form of heat map created using the Heatmapper web tool. The analysis was completed with the clustering method of Complete Linkage and the distance measurement method of Kendall's Tau.\nTo further examine how these compounds function to inhibit tumor growth, changes in both a wide variety of phosphoprotein and protein levels using reverse-phase protein arrays (RPPA) were evaluated. PANC1 and PC3-LN4 cells were treated with GRG1-34 at 5 μM for 24 h. […] The values in the RPPA obtained at these two time points were divided by the value at time zero to allow an evaluation of the changes caused by each drug treatment."}, "[5]": {"tested_on": "Prostate Cancer Growth", "experiment": "SAR studies using inhibition of prostate cancer growth as a readout", "type": "cell-based", "details": "SAR by substituent position"}, "[6]": {"tested_on": "A549 lung cancer", "experiment": "A549 lung cancer growth (crystal violet, 7 days)", "type": "cell-based", "details": "7 days of growth", "method": "Cells were plated at 1000 cells per well and 24 h later treated with GRG compounds. After 7 days of growth, tumor cells were fixed with 4% paraformaldehyde, stained with 0.5% crystal violet in methanol and lysed in SDS. The absorbance of six samples treated with each compound or DMSO control was read at 570 nm. The error bars represent the Standard Deviation of these measurements"}}, "note": "“Also recorded” adds a separate entry of the source. Read-outs that look alike come from different tables or passages of the source."}
{"smiles": "O=c1c(CNCc2cc(Br)ccn2)cc2ccc(Cl)cc2n1CCOc1ccccc1", "note": "[GRG-1-34, 3-((((4-bromopyridin-2-yl)methyl)amino)methyl)-7-chloro-1-(2-phenoxyethyl) quinolin-2 (1H)-one]", "values": [{"measurement": "number of P-bodies, with AKT inhibitor AZD5363 added", "setting": "[1]; combination with AZD5363 (3 μM), listed as VBT 1-34", "result": "further increased the number of P-bodies; also recorded: further increases P-bodies"}, {"measurement": "number of P-bodies", "setting": "[1]; compound alone", "result": "increases the number of P-bodies"}, {"measurement": "cellular level of Pim kinases", "setting": "[2]", "result": "decreases"}, {"measurement": "cellular level of c-Myc protein", "setting": "[2]", "result": "decreases"}, {"measurement": "mTORC1 activity: phosphorylation of the S6 protein", "setting": "[2]", "result": "inhibited the phosphorylation of the mTORC1 substrate S6 protein"}, {"measurement": "phosphorylation of AKT on serine 473", "setting": "[2]", "result": "increased the phosphorylation of AKT on serine 473"}, {"measurement": "mTORC1 activity: phosphorylation of the S6 protein", "setting": "[2]; listed as VBT 1-34", "result": "decreases"}, {"measurement": "block of phosphorylation of mTORC substrates (AKT, 4E-BP1, S6)", "setting": "[3]; FIG. 19", "result": "block the phosphorylation of mTORC substrates"}, {"measurement": "block of phosphorylation of mTORC substrates (AKT, 4E-BP1, S6)", "setting": "[3]; FIG. 19, listed as VBT 1-34", "result": "inhibit phosphorylation of mTORC substrates"}, {"measurement": "mTORC signaling pathway on RPPA (mTOR S2448, S6 S235/235, S6K T389, 4E-BP1 S65)", "setting": "[4]", "result": "inhibition"}, {"measurement": "phosphorylation of AMPK T172 on RPPA", "setting": "[4]", "result": "increased"}, {"measurement": "phosphorylation of acetyl COA carboxylase S79 on RPPA", "setting": "[4]", "result": "increased"}, {"measurement": "Activity (inhibition of prostate cancer growth)", "setting": "[5]", "result": 6, "unit": "active compounds"}, {"measurement": "A549 lung cancer growth", "setting": "[6]", "result": "Inhibition"}, {"measurement": "A549 lung cancer growth", "setting": "[6]; listed as VBT 1-34", "result": "shows activity"}]}
